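1) Cells in 96-well plates. 2) Compound, 48 h, 5 concentrations. 3) Linear interpolation between surrounding doses. 4) Unreached endpoint = highest concentration. The concentration for 50% growth inhibition is given as GI50. TGI: concentration producing complete growth inhibition.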

Some test systems named below: A549 NSCLC; HOP-62 NSCLC; HOP-92 NSCLC; OVCAR-3 ovarian; RPMI-8226 leukemia; SK-MEL-2 melanoma; SK-OV-3 ovarian; TK-10 renal; U251 CNS; HL-60(TB) leukemia.
What all share (assay): inhibition of tumour cell growth, NCI panel, 48 h

Take `COC(=O)/C(=C\c1c(C)[nH]c2ccccc12)S(=O)(=O)c1ccccc1`: the GI50 is 4.87 µM in the assay on A549 NSCLC; 7.69 µM in the assay with HOP-62 NSCLC; 4.14 µM in the assay with HOP-92 NSCLC; 2.7 µM in the assay on OVCAR-3 ovarian; 3.15 µM in the assay on RPMI-8226 leukemia; 10.6 µM in the assay with SK-MEL-2 melanoma. In addition, the GI50 in the assay with SK-OV-3 ovarian was 9.27 µM; with TK-10 renal, 8.07 µM; in the assay on U251 CNS, 3.42 µM. Further, the TGI with A549 NSCLC is 64 µM; in the assay with HOP-62 NSCLC it was 29.4 µM; with HOP-92 NSCLC it was 51.2 µM; with OVCAR-3 ovarian it was 7.56 µM; in the assay on RPMI-8226 leukemia it was over 100 µM; with SK-MEL-2 melanoma it was 25.5 µM. In addition, the TGI with SK-OV-3 ovarian was found to be 41.4 µM; with TK-10 renal, 96.6 µM; in the assay on U251 CNS, 12.6 µM.
With `OCCCCC#Cc1ccccc1C#Cc1ccccc1C(F)(F)F`, the GI50 in the assay on A549 NSCLC was 4.36 µM; with HOP-62 NSCLC, 8.46 µM; with HOP-92 NSCLC, 6.14 µM; with OVCAR-3 ovarian, 2.3 µM; with RPMI-8226 leukemia it was 3.84 µM; in the assay with SK-MEL-2 melanoma it was 15.6 µM. Also, the figures for the GI50 in the assay on SK-OV-3 ovarian, with TK-10 renal and in the assay with U251 CNS were 17.7 µM, 18.6 µM and 4.63 µM, respectively. Moreover, the TGI in the assay with A549 NSCLC is 16.6 µM; in the assay on HOP-62 NSCLC it was over 100 µM; with HOP-92 NSCLC, 18.4 µM; with OVCAR-3 ovarian, 9.28 µM; with RPMI-8226 leukemia, 26 µM; in the assay on SK-MEL-2 melanoma, 32.6 µM. Moreover, the results for the TGI in the assay with SK-OV-3 ovarian, with TK-10 renal and in the assay on U251 CNS were 32.7 µM, 47.1 µM and 17.9 µM, respectively.
In the case of `ON=C1CCC(c2ccccc2)CC1` (centres undefined), the TGI with A549 NSCLC, in the assay on HL-60(TB) leukemia, with HOP-62 NSCLC, in the assay on HOP-92 NSCLC, with OVCAR-3 ovarian and with SK-MEL-2 melanoma was over 100 µM in each case. Also, the TGI in the assay on SK-OV-3 ovarian, in the assay on TK-10 renal and with U251 CNS was over 100 µM in each case.
For the molecule `O=c1cc2ccccc2nn1-c1ccccc1Cl`, the TGI in the assay on A549 NSCLC, in the assay with HOP-62 NSCLC, in the assay on HOP-92 NSCLC, in the assay with OVCAR-3 ovarian, in the assay with RPMI-8226 leukemia and in the assay on SK-MEL-2 melanoma was over 100 µM each time. For the same molecule, the TGI with SK-OV-3 ovarian, in the assay on TK-10 renal and with U251 CNS was over 100 µM throughout.
Regarding `COc1ccc(/C=C\c2cc(OC)c(OC)c(OC)c2)cc1OCC(=O)Nc1nc2ccc(C(F)(F)F)cc2s1`, the GI50 was 4.46 µM in the assay on A549 NSCLC; 5.22 µM in the assay with HOP-62 NSCLC; 2.88 µM in the assay with HOP-92 NSCLC; 2.11 µM with OVCAR-3 ovarian; 5.48 µM with RPMI-8226 leukemia; 3.98 µM in the assay on SK-MEL-2 melanoma. Further, the values for the GI50 with SK-OV-3 ovarian, in the assay on TK-10 renal and in the assay on U251 CNS were 3.29 µM, 7.03 µM and 3.67 µM, respectively. Besides, the TGI in the assay on A549 NSCLC was over 100 µM; in the assay with HOP-62 NSCLC, over 100 µM; in the assay with HOP-92 NSCLC, 75.6 µM; in the assay with OVCAR-3 ovarian it was 4.51 µM; in the assay with RPMI-8226 leukemia, over 100 µM; in the assay on SK-MEL-2 melanoma, over 100 µM. Moreover, the TGI with SK-OV-3 ovarian is 17.2 µM; in the assay on TK-10 renal it was over 100 µM; in the assay on U251 CNS, over 100 µM.
With `Cc1cc(S(=O)(=O)Nc2nnc(-c3ccccc3)c(-c3ccccc3)n2)c(SCc2ccccc2)cc1Cl`, the GI50 with A549 NSCLC is 27.7 µM; in the assay with HL-60(TB) leukemia, 34.1 µM; with HOP-62 NSCLC, 22.9 µM; with HOP-92 NSCLC, 18.8 µM; in the assay with OVCAR-3 ovarian, 17.9 µM; in the assay on RPMI-8226 leukemia it was 11.5 µM. The figures for the GI50 in the assay on TK-10 renal and in the assay with U251 CNS were 17.6 µM and 21.7 µM, respectively. Besides, the TGI is over 100 µM with A549 NSCLC; 67.2 µM in the assay on HL-60(TB) leukemia; 39.6 µM in the assay on HOP-62 NSCLC; 47.1 µM in the assay with HOP-92 NSCLC; 34.8 µM in the assay with OVCAR-3 ovarian; 52.8 µM in the assay on RPMI-8226 leukemia. The TGI with TK-10 renal came to 36.1 µM; in the assay with U251 CNS, 50.1 µM.
In the case of `CCSc1nc(N=Cc2cccs2)c2cn[nH]c2n1`, the GI50 is 29.2 µM in the assay with A549 NSCLC; 53.8 µM in the assay on HOP-62 NSCLC; 10.4 µM in the assay with OVCAR-3 ovarian; 3.19 µM with RPMI-8226 leukemia; 26.2 µM with SK-MEL-2 melanoma; 56 µM in the assay on SK-OV-3 ovarian. For the same molecule, the GI50 with TK-10 renal is 9.47 µM; in the assay on U251 CNS it was 69.4 µM. The TGI is over 100 µM in the assay with A549 NSCLC; over 100 µM in the assay with HOP-62 NSCLC; 53.9 µM with OVCAR-3 ovarian; over 100 µM in the assay with RPMI-8226 leukemia; over 100 µM in the assay on SK-MEL-2 melanoma; over 100 µM with SK-OV-3 ovarian. Moreover, the TGI is 41.1 µM in the assay on TK-10 renal and over 100 µM in the assay with U251 CNS.
For `CC(=O)N1c2ccccc2Sc2cc(C(O)(C(F)(F)F)C(F)(F)F)ccc21`, the TGI in the assay with A549 NSCLC, with HL-60(TB) leukemia, in the assay on HOP-62 NSCLC, in the assay with HOP-92 NSCLC, with OVCAR-3 ovarian and in the assay on SK-MEL-2 melanoma was over 10 µM each time. Moreover, the TGI in the assay with SK-OV-3 ovarian, with TK-10 renal and in the assay on U251 CNS was over 10 µM throughout.
As to `Nc1ccccc1C#C/C=C\C#Cc1ccc(Cl)cc1Cl`, the GI50 in the assay with A549 NSCLC was 16 µM; in the assay on HOP-62 NSCLC, 16.6 µM; in the assay on HOP-92 NSCLC it was 17 µM; in the assay on OVCAR-3 ovarian, 5.19 µM; in the assay with RPMI-8226 leukemia, 0.89 µM; in the assay on SK-MEL-2 melanoma, 25 µM. Further, the figures for the GI50 in the assay with SK-OV-3 ovarian, in the assay with TK-10 renal and in the assay with U251 CNS were 27.8 µM, 11.6 µM and 15.3 µM, respectively. Besides, the TGI worked out at 44.2 µM with A549 NSCLC; 32.8 µM in the assay on HOP-62 NSCLC; 48.1 µM with HOP-92 NSCLC; 17.9 µM in the assay on OVCAR-3 ovarian; 30.5 µM with RPMI-8226 leukemia; 70.1 µM in the assay on SK-MEL-2 melanoma. In addition, the TGI worked out at 80.5 µM in the assay on SK-OV-3 ovarian, 26.8 µM with TK-10 renal and 34 µM in the assay with U251 CNS.
Take `O=[N+]([O-])/C=C/c1c[nH]c2ccccc12`: the GI50 in the assay on A549 NSCLC was 14 µM; in the assay with HL-60(TB) leukemia, 6.5 µM; in the assay on HOP-62 NSCLC, 21.4 µM; in the assay with OVCAR-3 ovarian, 15.4 µM; with RPMI-8226 leukemia, 1.83 µM; in the assay on SK-MEL-2 melanoma, 18.6 µM. In addition, the GI50 with SK-OV-3 ovarian was 15.2 µM; with TK-10 renal it was 16.8 µM; with U251 CNS, 12.8 µM. The TGI is 31.7 µM in the assay on A549 NSCLC; 25 µM in the assay on HL-60(TB) leukemia; 36.5 µM with HOP-62 NSCLC; 33 µM in the assay on OVCAR-3 ovarian; 7.7 µM with RPMI-8226 leukemia; 37.8 µM in the assay with SK-MEL-2 melanoma. Besides, the TGI in the assay on SK-OV-3 ovarian is 29.1 µM; with TK-10 renal, 30.7 µM; with U251 CNS, 26.7 µM.

These data come from PubChem BioAssay (NCI).
